# Test results: patent US20120270908A1, “SUBSTITUTED 3 -HYDROZYPYRIDINES AND PHARMACEUTICAL COMPOSITIONS THEREOF” (priority 2007, published 2012)
# How the values were obtained:
# insulin receptor = biological target: T1, insulin receptor (Homo sapiens, UniProt P06213); assay: Activation of insulin receptor in HepG2 cells: phosphorylation of tyrosine residues 1162/1163, PhosphoDetect insulin receptor ELISA kit; assay type: cell-based; details: 10 min, PBS with 5 mM glucose, percentage of the response to 100 nM insulin, mean±SEM (n=8)
# T1 construct: endogenous in cells; host or cells: HepG2 (human hepatoma)
# T1 sequence (P06213 28-758 limits assumed): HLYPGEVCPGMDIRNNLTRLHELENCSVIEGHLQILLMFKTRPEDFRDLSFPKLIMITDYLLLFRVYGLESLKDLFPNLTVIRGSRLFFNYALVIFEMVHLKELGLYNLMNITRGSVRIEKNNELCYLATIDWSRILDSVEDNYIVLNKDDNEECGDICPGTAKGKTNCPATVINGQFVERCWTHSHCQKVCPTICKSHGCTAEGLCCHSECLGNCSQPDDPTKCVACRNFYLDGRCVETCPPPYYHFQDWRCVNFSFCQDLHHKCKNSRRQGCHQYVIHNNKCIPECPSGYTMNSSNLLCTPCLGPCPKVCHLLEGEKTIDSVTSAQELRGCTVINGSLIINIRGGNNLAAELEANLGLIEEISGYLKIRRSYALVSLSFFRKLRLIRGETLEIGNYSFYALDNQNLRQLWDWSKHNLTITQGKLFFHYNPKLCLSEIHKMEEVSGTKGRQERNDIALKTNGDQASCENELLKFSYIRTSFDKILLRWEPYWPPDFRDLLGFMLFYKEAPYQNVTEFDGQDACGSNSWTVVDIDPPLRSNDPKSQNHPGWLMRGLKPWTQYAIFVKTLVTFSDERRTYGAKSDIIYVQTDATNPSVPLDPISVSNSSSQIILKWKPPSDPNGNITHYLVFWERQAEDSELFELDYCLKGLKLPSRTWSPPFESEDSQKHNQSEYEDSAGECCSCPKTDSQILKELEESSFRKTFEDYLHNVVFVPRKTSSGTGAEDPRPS
# T1 sequence (P06213 763-1382 limits assumed): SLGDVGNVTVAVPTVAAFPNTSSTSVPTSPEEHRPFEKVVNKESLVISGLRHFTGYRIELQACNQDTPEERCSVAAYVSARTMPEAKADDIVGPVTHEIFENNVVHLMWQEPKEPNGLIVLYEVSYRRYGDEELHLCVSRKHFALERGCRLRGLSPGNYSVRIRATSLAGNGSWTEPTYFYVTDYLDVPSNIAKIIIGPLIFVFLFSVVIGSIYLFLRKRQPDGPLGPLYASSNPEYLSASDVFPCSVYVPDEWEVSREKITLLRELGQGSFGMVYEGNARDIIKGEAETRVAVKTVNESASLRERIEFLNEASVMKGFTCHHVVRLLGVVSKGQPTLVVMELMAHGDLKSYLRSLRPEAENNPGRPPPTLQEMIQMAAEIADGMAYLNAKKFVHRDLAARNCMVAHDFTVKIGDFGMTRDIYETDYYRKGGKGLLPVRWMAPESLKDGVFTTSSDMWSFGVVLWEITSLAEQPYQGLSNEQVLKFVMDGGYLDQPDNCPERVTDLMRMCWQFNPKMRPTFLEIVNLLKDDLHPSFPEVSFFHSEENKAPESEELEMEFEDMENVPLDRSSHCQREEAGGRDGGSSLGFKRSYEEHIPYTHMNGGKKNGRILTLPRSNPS
# From the text: It is generally recognized that the phosphorylation increase activity of receptor to about 200-fold as compared to unphosphorylated one.
# [1] = tested on: streptozotocin-induced male albino Wistar rats; assay: Streptozotocin-induced decompensated insulin resistance in rats: fasting serum glucose, plasma insulin, plasma triglycerides; assay type: in vivo; details: mean±SEM (n=10); for Glucose: fasting serum; for Insulin / Triglycerides: plasma
# Experimental: The rats with glucose levels more than 14.0 mmol/1 were used in the experiment one week after the streptozotocin injection.
# Streptozotocin-induced rats were assigned to three groups: a control rats (n=10) and experimental rats (n=20). Control rats received daily i.p. injections of saline for 7 days. Experimental rats received daily i.p. injections of 10 mg/kg 2-Ethyl-4,6-dimethyl-3-hydroxypyridine, succinic acid salt (1:1); or 2-Ethyl-4,5,6-trimethyl-3-hydroxypyridine, succinic acid salt (1:1) for 7 days. Biochemical parameters were determined just before start of the treatment and on 14 day from the start of the treatment.
# [2] = 14 Day from start, 10 mg/kg i.p. daily for 7 days
# [3] = before treatment (baseline of the group)
SMILES,"Insulin receptor phosphorylation, % (insulin receptor; compound 50 μM alone)","Insulin receptor phosphorylation, % (insulin receptor; insulin 5 nM + compound 50 μM)","Glucose [1, 2]","Glucose [1, 3]","Insulin [1, 2]","Triglycerides [1, 2]","Insulin [1, 3]","Triglycerides [1, 3]"
"CCc1nc(C)c(C)c(C)c1O.O=C(O)CCC(=O)O [2-Ethyl-4,5,6-trimethyl-3-hydroxypyridine, succinic acid salt (1:1)]",13 ± 2%,62 ± 8 %,7.3 ± 1.1 mmol/L,16.0 ± 2.6 mmol/L,2.3 ± 0.5 ng/mL,1.6 ± 0.3 mmol/L,11.4 ± 2.0 ng/mL,3.1 ± 0.2 mmol/L
"CCc1nc(C)cc(C)c1O.O=C(O)CCC(=O)O [2-Ethyl-4,6-dimethyl-3-hydroxypyridine, succinic acid salt (1:1)]",14 ± 4%,56 ± 7 %,8.5 ± 1.3 mmol/L,15.9 ± 2.1 mmol/L,2.9 ± 0.4 ng/mL,1.8 ± 0.4 mmol/L,11.2 ± 1.7 ng/mL,2.9 ± 0.4 mmol/L
